Each structure is given as a SMILES string. Some results are limits rather than exact numbers.

System in the first series: not listed separately
The series is described as follows: Aqueous solubility in the cell culture medium. It is filed as physicochemical.
Conditions: not given
The method, then:
It appeared that the cluttered derivatives (3q, 3s) and the 2-chlorophenoxy derivative (3b) were the less cytotoxic compounds.
The HepG2 cell line was maintained at 37 °C, 5% CO2, at 90% humidity in MEM supplemented with 10% fetal bovine serum, 1% L-glutamine (200 mM), and penicillin (100 U/mL)/streptomycin (100 μg/mL) (complete RPMI medium). The cytotoxicity of the tested molecules on the HepG2 (hepatocarcinoma cell line purchased from ATCC, ref HB-8065) cell line was assessed according to the method of Mosmann with slight modifications. Briefly, 5.10^3 cells in 100 μL of complete medium were inoculated into each well of 96-well plates and incubated at 37 °C in humidified 5% CO2. After 24 h incubation, 100 μL of medium with various product concentrations dissolved in DMSO (final concentration less than 0.5% v/v) were added and the plates were incubated for 72 h at 37 °C. Triplicate assays were performed for each sample. Each plate-well was then microscopically examined for possible precipitate formation before the medium was aspirated from the wells. Next, 100 µL of MTT (3-(4,5-dimethyl-2-thiazolyl)-2,5-diphenyl -2H-tetrazolium bromide) solution (0.5 mg/mL in medium without FBS) was added to each well. Cells were incubated for 2 h at 37 °C. After this time, the MTT solution was removed and DMSO (100 μL) was added to dissolve the resulting blue formazan crystals. Plates were shaken vigorously (700 rpm) for 10 min. The absorbance was measured at 570 nm with 630 nm as reference wavelength using a BIO-TEK ELx808 Absorbance Microplate Reader (LabX, Midland, ON, Canada). DMSO was used as blank and doxorubicin (purchased from Sigma Aldrich) as positive control. Cell viability was calculated as a percentage of control (cells incubated without compound). […] CC50 values to represent the mean value calculated from three independent experiments.
Consider `Fc1ccccc1Oc1nc2ccccc2nc1C(Cl)(Cl)Cl` [3e, 2-(2-Fluorophenoxy)-3-trichloromethylquinoxaline], for which the “Aqueous solubility in the cell culture medium” value is listed as “poor aqueous solubility”.
On the same count and under the same terms, to `COc1ccc(Oc2nc3ccccc3nc2C(Cl)(Cl)Cl)cc1` [3h, 2-(4-Methoxyphenoxy)-3-trichloromethylquinoxaline] belongs “poor aqueous solubility”.
In the case of `ClC(Cl)(Cl)c1nc2ccccc2nc1Oc1ccc(-c2ccccc2)cc1` [3s, 2-([1,1′-Biphenyl]-4-yloxy)-3-trichloromethylquinoxaline], the “Aqueous solubility in the cell culture medium” value is listed as “poor aqueous solubility”.
Same read-out and setting: the value for `ClC(Cl)(Cl)c1nc2ccccc2nc1Oc1cccc(-c2ccccc2)c1` [3t, 2-([1,1′-Biphenyl]-3-yloxy)-3-trichloromethylquinoxaline] was “poor aqueous solubility”.

System in the next series: not listed separately
The series can be described thus: In vitro cytotoxicity evaluation HepG2 (MTT). It is filed as cell-based, human. Conditions: human, CC50 HepG2 (µM) ± SD. How it is done: (§1) For all molecules, the selectivity index was calculated as following SI = CC50/EC50.
Triplicate assays were performed for each sample. Each plate-well was then microscopically examined for possible precipitate formation before the medium was aspirated from the wells. Next, 100 µL of MTT (3-(4,5-dimethyl-2-thiazolyl)-2,5-diphenyl -2H-tetrazolium bromide) solution (0.5 mg/mL in medium without FBS) was added to each well. […] After this time, the MTT solution was removed and DMSO (100 μL) was added to dissolve the resulting blue formazan crystals. Plates were shaken vigorously (700 rpm) for 10 min. The absorbance was measured at 570 nm with 630 nm as reference wavelength using a BIO-TEK ELx808 Absorbance Microplate Reader (LabX, Midland, ON, Canada). DMSO was used as blank and doxorubicin (purchased from Sigma Aldrich) as positive control. Cell viability was calculated as a percentage of control (cells incubated without compound). […] CC50 values to represent the mean value calculated from three independent experiments.
A word on the CC50: it is the concentration giving 50% cytotoxicity. Regarding `ClC(Cl)(Cl)c1nc2ccccc2nc1Oc1ccccc1` [3a, 2-Phenoxy-3-trichloromethylquinoxaline], the CC50 at 72 h stood at 45.3 ± 9.6 µM.
Still for that read-out and setting: the value for `Clc1ccccc1Oc1nc2ccccc2nc1C(Cl)(Cl)Cl` [3b, 2-(2-Chlorophenoxy)-3-trichloromethylquinoxaline] was 49.5 ± 10.1 µM; that for `Clc1cccc(Oc2nc3ccccc3nc2C(Cl)(Cl)Cl)c1` [3c] was 37.2 ± 8.1 µM; that for `Clc1ccc(Oc2nc3ccccc3nc2C(Cl)(Cl)Cl)c(Cl)c1` [3d, 2-(2,4-Dichlorophenoxy)-3-trichloromethylquinoxaline] was 37.7 ± 4.7 µM.
Compound `Fc1ccccc1Oc1nc2ccccc2nc1C(Cl)(Cl)Cl` [3e, 2-(2-Fluorophenoxy)-3-trichloromethylquinoxaline] showed a CC50 at 72 h of over 15.6 µM.
The same measure, in the same setting: to `Fc1cccc(Oc2nc3ccccc3nc2C(Cl)(Cl)Cl)c1` [3f, 2-(3-Fluorophenoxy)-3-trichloromethylquinoxaline] belongs 33.5 ± 6.3 µM; to `Fc1ccc(Oc2nc3ccccc3nc2C(Cl)(Cl)Cl)cc1` [3g, 2-(4-Fluorophenoxy)-3-trichloromethylquinoxaline], 35.9 ± 7.5 µM.
Take `COc1ccc(Oc2nc3ccccc3nc2C(Cl)(Cl)Cl)cc1` [3h, 2-(4-Methoxyphenoxy)-3-trichloromethylquinoxaline]: the CC50 at 72 h is over 7.8 µM.
The same measure, in the same setting: to `FC(F)(F)c1ccc(Oc2nc3ccccc3nc2C(Cl)(Cl)Cl)cc1` [3j, 2-Trichloromethyl-3-[4-(trifluoromethyl)phenoxy]quinoxaline] belongs 28.3 ± 4.4 µM.
The same measure, in the same setting: the value for `ClC(Cl)(Cl)c1nc2ccccc2nc1Oc1ccc(-c2ccccc2)cc1` [3s, 2-([1,1′-Biphenyl]-4-yloxy)-3-trichloromethylquinoxaline] was over 62.5 µM; that for `ClC(Cl)(Cl)c1nc2ccccc2nc1Oc1cccc(-c2ccccc2)c1` [3t, 2-([1,1′-Biphenyl]-3-yloxy)-3-trichloromethylquinoxaline] was over 31.2 µM.

A further series relates to K1 chloroquine and pyrimethamine-resistant P. falciparum strain. The series can be described thus: In vitro antiplasmodial evaluation (SYBR Green I). It is filed as cell-based, Plasmodium falciparum. To be noted: Plasmodium falciparum, K1, 72 h, K1 strain, 72 h incubation, three independent experiments; read-out: EC50 PfK1 (µM) ± SD. How it is done:
as §1
It was maintained in continuous culture, as described previously by Trager and Jensen. Cultures were maintained in fresh A+ human erythrocytes at 2.5% hematocrit in complete medium (RPMI 1640 with 25 mM HEPES, 25 mM NaHCO3, 10% of A+ human serum) at 37 °C under reduced O2 atmosphere (gas mixture 10% O2, 5% CO2, and 85% N2). Parasitemia was maintained daily between 1 and 3%. The P. falciparum drug susceptibility test was carried out by comparing quantities of DNA in treated and control cultures of parasite in human erythrocytes according to an SYBR Green I fluorescence-based method using a 96-well fluorescence plate reader. Compounds, previously dissolved in DMSO (final concentration less than 0.5% v/v), were incubated in a total assay volume of 200 μL (RPMI, 2% hematocrit and 0.4% parasitemia) for 72 h in a humidified atmosphere (10% O2 and 5% CO2) at 37 °C, in 96-well flat bottom plates. Duplicate assays were performed for each sample. After incubation, plates were frozen at […] for 24 h. Then, the frozen plates were thawed for 1 h at 37 °C. Fifteen µL of each sample were transferred to 96-well flat bottom non-sterile black plates (Greiner Bio-one, Kremsmünster, Austria), already containing 15 µL of the SYBR Green I lysis buffer (2X SYBR Green I, 20 mM Tris base pH 7.5, 20 mM EDTA, 0.008% w/v saponin, 0.08% w/v Triton X-100). […] Plates were incubated for 15 min at 37 °C and then read on a TECAN Infinite F-200 spectrophotometer with excitation and emission wavelengths at 485 and 535 nm, respectively.
One may read the EC50 as the concentration at which the effect is half-maximal. Take `ClC(Cl)(Cl)c1nc2ccccc2nc1Oc1ccccc1` [3a, 2-Phenoxy-3-trichloromethylquinoxaline]: the EC50 came to 0.47 ± 0.1 µM.
Still for that read-out and setting: the value for `Clc1ccccc1Oc1nc2ccccc2nc1C(Cl)(Cl)Cl` [3b, 2-(2-Chlorophenoxy)-3-trichloromethylquinoxaline] was 0.55 ± 0.12 µM; that for `Clc1cccc(Oc2nc3ccccc3nc2C(Cl)(Cl)Cl)c1` [3c] was 0.34 ± 0.06 µM.
For `Clc1ccc(Oc2nc3ccccc3nc2C(Cl)(Cl)Cl)c(Cl)c1` [3d, 2-(2,4-Dichlorophenoxy)-3-trichloromethylquinoxaline], the EC50 was 0.6 ± 0.12 µM.
The same measure, in the same setting: the value for `Fc1ccccc1Oc1nc2ccccc2nc1C(Cl)(Cl)Cl` [3e, 2-(2-Fluorophenoxy)-3-trichloromethylquinoxaline] was 0.64 ± 0.14 µM; that for `Fc1cccc(Oc2nc3ccccc3nc2C(Cl)(Cl)Cl)c1` [3f, 2-(3-Fluorophenoxy)-3-trichloromethylquinoxaline] was 0.32 ± 0.07 µM; that for `Fc1ccc(Oc2nc3ccccc3nc2C(Cl)(Cl)Cl)cc1` [3g, 2-(4-Fluorophenoxy)-3-trichloromethylquinoxaline] was 0.42 ± 0.09 µM.
On the same count and under the same terms, the value for `COc1ccc(Oc2nc3ccccc3nc2C(Cl)(Cl)Cl)cc1` [3h, 2-(4-Methoxyphenoxy)-3-trichloromethylquinoxaline] was 0.38 ± 0.08 µM; that for `FC(F)(F)c1ccc(Oc2nc3ccccc3nc2C(Cl)(Cl)Cl)cc1` [3j, 2-Trichloromethyl-3-[4-(trifluoromethyl)phenoxy]quinoxaline] was 0.3 ± 0.06 µM; that for `ClC(Cl)(Cl)c1nc2ccccc2nc1Oc1ccc(-c2ccccc2)cc1` [3s, 2-([1,1′-Biphenyl]-4-yloxy)-3-trichloromethylquinoxaline] was 0.6 ± 0.1 µM.
Same read-out and setting: the value for `ClC(Cl)(Cl)c1nc2ccccc2nc1Oc1cccc(-c2ccccc2)c1` [3t, 2-([1,1′-Biphenyl]-3-yloxy)-3-trichloromethylquinoxaline] was 0.5 ± 0.05 µM.

The series is the same for the next values; noted with them: SI = CC50 HepG2/EC50 PfK1.
Regarding `ClC(Cl)(Cl)c1nc2ccccc2nc1Oc1ccccc1` [3a, 2-Phenoxy-3-trichloromethylquinoxaline], the “SI (selectivity index)” value is 96.4.
Still for that read-out and setting: the value for `Clc1ccccc1Oc1nc2ccccc2nc1C(Cl)(Cl)Cl` [3b, 2-(2-Chlorophenoxy)-3-trichloromethylquinoxaline] was 90.0; that for `Clc1cccc(Oc2nc3ccccc3nc2C(Cl)(Cl)Cl)c1` [3c] was 109.4; that for `Clc1ccc(Oc2nc3ccccc3nc2C(Cl)(Cl)Cl)c(Cl)c1` [3d, 2-(2,4-Dichlorophenoxy)-3-trichloromethylquinoxaline] was 62.8.
Still for that read-out and setting: the value for `Fc1ccccc1Oc1nc2ccccc2nc1C(Cl)(Cl)Cl` [3e, 2-(2-Fluorophenoxy)-3-trichloromethylquinoxaline] was over 24.4; that for `Fc1cccc(Oc2nc3ccccc3nc2C(Cl)(Cl)Cl)c1` [3f, 2-(3-Fluorophenoxy)-3-trichloromethylquinoxaline] was 105.0; that for `Fc1ccc(Oc2nc3ccccc3nc2C(Cl)(Cl)Cl)cc1` [3g, 2-(4-Fluorophenoxy)-3-trichloromethylquinoxaline] was 85.5.
Still for that read-out and setting: to `COc1ccc(Oc2nc3ccccc3nc2C(Cl)(Cl)Cl)cc1` [3h, 2-(4-Methoxyphenoxy)-3-trichloromethylquinoxaline] belongs over 20.6.
In the case of `FC(F)(F)c1ccc(Oc2nc3ccccc3nc2C(Cl)(Cl)Cl)cc1` [3j, 2-Trichloromethyl-3-[4-(trifluoromethyl)phenoxy]quinoxaline], the “SI (selectivity index)” value was determined as 94.3.
Same read-out and setting: the value for `ClC(Cl)(Cl)c1nc2ccccc2nc1Oc1ccc(-c2ccccc2)cc1` [3s, 2-([1,1′-Biphenyl]-4-yloxy)-3-trichloromethylquinoxaline] was over 104.2.
Turning to `ClC(Cl)(Cl)c1nc2ccccc2nc1Oc1cccc(-c2ccccc2)c1` [3t, 2-([1,1′-Biphenyl]-3-yloxy)-3-trichloromethylquinoxaline], the “SI (selectivity index)” value is over 62.5.

System in another series: not given
Experiment: not given
Conditions: not given
Usually melting point stands for the temperature of the solid-liquid transition. Turning to `ClC(Cl)(Cl)c1nc2ccccc2nc1Oc1ccccc1` [3a, 2-Phenoxy-3-trichloromethylquinoxaline], the melting point is 59 °C.
The same measure, in the same setting: the value for `Clc1ccccc1Oc1nc2ccccc2nc1C(Cl)(Cl)Cl` [3b, 2-(2-Chlorophenoxy)-3-trichloromethylquinoxaline] was 99 °C; that for `Clc1cccc(Oc2nc3ccccc3nc2C(Cl)(Cl)Cl)c1` [3c] was 58 °C; that for `Clc1ccc(Oc2nc3ccccc3nc2C(Cl)(Cl)Cl)c(Cl)c1` [3d, 2-(2,4-Dichlorophenoxy)-3-trichloromethylquinoxaline] was 120 °C.
On the same count and under the same terms, to `Fc1ccccc1Oc1nc2ccccc2nc1C(Cl)(Cl)Cl` [3e, 2-(2-Fluorophenoxy)-3-trichloromethylquinoxaline] belongs 138 °C; to `Fc1cccc(Oc2nc3ccccc3nc2C(Cl)(Cl)Cl)c1` [3f, 2-(3-Fluorophenoxy)-3-trichloromethylquinoxaline], 101 °C.
The same measure, in the same setting: the value for `Fc1ccc(Oc2nc3ccccc3nc2C(Cl)(Cl)Cl)cc1` [3g, 2-(4-Fluorophenoxy)-3-trichloromethylquinoxaline] was 56 °C; that for `COc1ccc(Oc2nc3ccccc3nc2C(Cl)(Cl)Cl)cc1` [3h, 2-(4-Methoxyphenoxy)-3-trichloromethylquinoxaline] was 171 °C.
On to `FC(F)(F)c1ccc(Oc2nc3ccccc3nc2C(Cl)(Cl)Cl)cc1` [3j, 2-Trichloromethyl-3-[4-(trifluoromethyl)phenoxy]quinoxaline], for which the melting point worked out at 129 °C.
On the same count and under the same terms, the value for `ClC(Cl)(Cl)c1nc2ccccc2nc1Oc1ccc(-c2ccccc2)cc1` [3s, 2-([1,1′-Biphenyl]-4-yloxy)-3-trichloromethylquinoxaline] was 160 °C.

The values are drawn from publication PMC8400257, “2-Phenoxy-3-Trichloromethylquinoxalines Are Antiplasmodial Derivatives with Activity against the Apicoplast of Plasmodium falciparum” (Pharmaceuticals, 2021).
